Results reported in patent publication US20220280472A1, “TREATMENT OF PULMONARY FIBROSIS USING INHIBITORS OF NEU1 SIALIDASE” (University of Maryland, Baltimore, priority 2019, published 2022).
“Also recorded” adds a separate entry of the source.

Legend:
[1] = test system: HPMECs (human primary pulmonary microvascular endothelial cells); settings: cited from earlier work
[2] = test system: total lung sialidase (NEU) activity; experiment: Total sialidase (NEU) activity for 4-MU-NANA in mouse lung after in vivo dosing; design: lung sialidase activity: dose or concentration left out as unconfirmed; settings: for total lung sialidase activity: 15 mg/kg ip, harvested 18 h later
Experimental: Wild-type female C57BL/6 mice aged 10-12 weeks and weighing 18-20 g (The Jackson Laboratory, Bar Harbor, Me.) were treated in accordance with a research protocol approved by the University of Maryland Institutional Animal Care and Use Committee. Animals were maintained in sterile microisolator cages with sterile rodent feed and water in the Baltimore VA Medical Center Research Animal Facility approved by the Association for Assessment and Accreditation of Laboratory Animal Care. To model pulmonary inflammation and fibrosis, a single dose of 0.075 U of bleomycin (BLM)(Sigma-Aldrich, St. Louis, Mo.) diluted in 50 μl of sterile phosphate-buffered saline (PBS) was intratracheally (i.t.) delivered to mouse lungs on day 0. Briefly, a minor anterior midline neck incision was made to reveal the trachea, and a MicroSprayer® (Penn-Century, Wyndmoor, Philadelphia, Pa.) was inserted i.t., and the bleomycin or sterile PBS alone instilled. […] On day 14, mice were euthanized by CO2 asphyxiation followed by cervical dislocation. Immediately postmortem, bronchoalveolar lavage fluid (BALF)s and lungs were harvested. BALF samples were collected and analyzed. Installation and withdrawal of 1 ml of PBS twice via an 18-gauge blunt-end needle secured in the trachea were performed in each animal The 2 aliquots of BALF were pooled, centrifuged, and total and differential cell counts performed. The lungs were processed for qRT-PCR, to measure levels for NEU 1-4, PPCA, collagen 1α2, and collagen 3α1transcripts, quantitative immunoblotting for NEU1-4 and PPCA proteins, and determination of hydroxyproline as a measure of total collagen. In selected experiments, lung tissue was processed for assays of total sialidase activity for fluorogenic substrate, 2′-(4-methylumbelliferyl)-α-D-N-acetylneuraminic acid (4-MU-NANA) and peanut agglutinin (PNA) lectin blotting as an indicator of desialylation.
Fluorometric Assay for Sialidase Activity: Lungs harvested from mice pretreated with one of three sialidase inhibitors or saline alone were weighed, homogenized, centrifuged, and the supernatants collected. These samples and SAECs, HPMECs, and NHLFs preincubated with increasing concentrations of the NEU1-selective NEU inhibitor, III-32B5 were suspended in 200μλ of 500 mM sodium acetate, pH 4.4 containing 0.1% Triton X-100, and a protease inhibitor mixture (Roche Applied Science), and then incubated for 1 h at 37° C. with 25 μl of 2.0 mM 2′-(4-methylumbelliferyl)-α-D-N-acetylneuraminic acid (4-MU-NANA), mixing the tubes every 15 min. The NEU reaction was terminated by addition of 133 mM glycine, pH 10.3, 60 mM NaCl, and 0,083 M […] after which the fluorescence intensity was measured with a Bio-Rad fluorometer (excitation at 355 nm; emission at 460 nm). […]

[3] = test system: HLFs (human lung fibroblasts); settings: cited from earlier work
[4] = test system: SAECs (human primary small airway epithelial cells); settings: cited from earlier work
[5] = test system: bleomycin-challenged C57BL/6 mice; experiment: Bleomycin-induced pulmonary fibrosis model; format: in vivo, mouse; settings: for BALF total cell counts, lymphocytes, and neutrophils / lung collagen mRNA (collagen 1A2, collagen 3A1; qRT-PCR) / lung collagen protein (hydroxyproline-based QuickZyme assay): 15 mg/kg i.p. daily days 8-14, day 14, vs bleomycin alone; for total body weight: 15 mg/kg i.p. daily on days 8-14 after bleomycin, by day 14
Experimental: Wild-type female C57BL/6 mice aged 10-12 weeks and weighing 18-20 g (The Jackson Laboratory, Bar Harbor, Me.) were treated in accordance with a research protocol approved by the University of Maryland Institutional Animal Care and Use Committee. Animals were maintained in sterile microisolator cages with sterile rodent feed and water in the Baltimore VA Medical Center Research Animal Facility approved by the Association for Assessment and Accreditation of Laboratory Animal Care. To model pulmonary inflammation and fibrosis, a single dose of 0.075 U of bleomycin (BLM)(Sigma-Aldrich, St. Louis, Mo.) diluted in 50 μl of sterile phosphate-buffered saline (PBS) was intratracheally (i.t.) delivered to mouse lungs on day 0. Briefly, a minor anterior midline neck incision was made to reveal the trachea, and a MicroSprayer® (Penn-Century, Wyndmoor, Philadelphia, Pa.) was inserted i.t., and the bleomycin or sterile PBS alone instilled. Mice were serially weighed, and on days 8-14, daily administered intraperitoneally (i. p.) with 15 mg/kg of 2DN, or […], or III-32B5, or vehicle alone. On day 14, mice were euthanized by CO2 asphyxiation followed by cervical dislocation. Immediately postmortem, bronchoalveolar lavage fluid (BALF)s and lungs were harvested. BALF samples were collected and analyzed. Installation and withdrawal of 1 ml of PBS twice via an 18-gauge blunt-end needle secured in the trachea were performed in each animal The 2 aliquots of BALF were pooled, centrifuged, and total and differential cell counts performed. […] Total cellular RNA was extracted from murine lung tissue. RNA purity was established with the A260/A280 absorption ratio (>1.90). Total RNA (1.0 μg) was treated with DNase I (Invitrogen) for 15 min and reverse transcribed using avian myeloblastosis virus reverse transcriptase and poly(T) primer (Promega). The resulting cDNA was quantified by real time quantitative reverse transcription-polymerase chain reaction (qRT-PCR) using SYBR Green PCR Master Mix and ABI Prism 7900HT cycler. […] Measurement of Total Lung Collagen: Collagen content was measured in lung tissue based on detection of hydroxyproline, using the Total Collagen Assay kit from QuickZyme (Leiden, The Netherlands). Briefly, following hydrolysis of 50 mg lung tissue in […] of 6M HCl for 20 h at 95° C., the hydrolysate was diluted 10-fold with 4M HCl and measured against serial dilutions of collagen standard; the results were expressed as μg collagen per mg wet lung tissue. Mice challenged I.T. with bleomycin were serially weighed, and on days 8-14, daily administered i.p. 2DN or vehicle alone. On day 14, mice were sacrificed, and BALF and lungs harvested. The BALF was processed for total and differential cell counts, and lung tissues were collagenase-digested for lymphocyte counts and flow cytometry, processed for qRT-PCR for collagen mRNA expression, or homogenized for hydroxyproline-based assays to quantify collagen protein (FIG. 1C, 1D, 1E). In all bleomycin-challenged mice, total body weight decreased through days 1-7 (FIG. 1B). While the saline-injected, bleomycin-challenged mice continued to lose body weight through the 14-day study period, on days ≥9, the 2DN-treated, bleomycin-administered mice maintained and even increased body weight. […] On day 14, total and differential BALF cell counts were performed (FIG. 1C). In the PBS-injected, bleomycin-challenged mice, total cell counts, macrophages, lymphocytes, and neutrophils each were increased compared to BALF cell counts for the simultaneous saline controls. The addition of broad-spectrum NEU inhibition with 2DN reversed the increased in total cell counts, lymphocytes, and neutrophils, each compared to counts in the PBS-injected, bleomycin-challenged mice. In these same mice, lung homogenates were processed for qRT-PCR using primers for collagen 1A2 and collagen 3A1 to quantify their mRNA expression (FIG. 1D). […]

[6] = test system: BALF cell sialidase activity; experiment: Total BALF cell sialidase activity after in vivo dosing; design: species or system mouse; settings: 15 mg/kg ip, re-injected after 24 h, harvested 18 h later; vs saline
Experimental: Fluorometric Assay for Sialidase Activity: Lungs harvested from mice pretreated with one of three sialidase inhibitors or saline alone were weighed, homogenized, centrifuged, and the supernatants collected. These samples and SAECs, HPMECs, and NHLFs preincubated with increasing concentrations of the NEU1-selective NEU inhibitor, III-32B5 were suspended in 200μλ of 500 mM sodium acetate, pH 4.4 containing 0.1% Triton X-100, and a protease inhibitor mixture (Roche Applied Science), and then incubated for 1 h at 37° C. with 25 μl of 2.0 mM 2′-(4-methylumbelliferyl)-α-D-N-acetylneuraminic acid (4-MU-NANA), mixing the tubes every 15 min. The NEU reaction was terminated by addition of 133 mM glycine, pH 10.3, 60 mM NaCl, and 0,083 M […] after which the fluorescence intensity was measured with a Bio-Rad fluorometer (excitation at 355 nm; emission at 460 nm).
After 24 h, the mice were administered these same injections, and 18 h later, were euthanized and their BALFs and lungs harvested. The lungs were processed for total protein levels and total sialidase activity. […] The BALFs from these same mice were processed for cell counts and sialidase activity. […] These findings establish the ability of each of 2 NEU1-selective pharmacologic inhibitors to profoundly reduce total lung and BALF cell sialidase activity in vivo. The NEU1 inhibitor can comprise C1-methyl esters of the compounds.

[7] = test system: bleomycin-challenged C57BL/6 mice; experiment: Bleomycin-induced pulmonary fibrosis model; format: in vivo, mouse; settings: 15 mg/kg; FIG. 6A
NEUs 2-4 = settings: cited from earlier work
[8] = test system: SAECs (human primary small airway epithelial cells); experiment: Fluorometric sialidase activity assay (4-MU-NANA) in SAECs; format: cell-based; settings: increasing concentrations; 1.0×10^6 cells/reaction
Experimental: (§1) Human Lung Cell Cultures: Human primary small airway epithelial cell (SAEC)s isolated from the distal portion of the bronchioles and human primary pulmonary microvascular endothelial cell (HPMEC)s were purchased from Promocell (Heidelberg, Germany) SAECs were cultured in predefined small airway growth medium containing hydrocortisone, human epidermal growth factor, epinephrine, transferrin, insulin, retinoic acid, triiodothyronine, and fatty acid-free bovine serum albumin. Only SAEC passaged 2-4 were studied. HPMECs were cultured in endothelial cell growth medium (MV-2, PromoCell) containing growth medium supplement mix (PromoCell). Only HPMEC passages 4-7 were studied. Primary normal human lung fibroblast (NHLF)s were either isolated from normal lungs initially harvested from lung […] but ultimately not used in a study approved by the Institutional Review Board at the University of Maryland, or purchased from Lonza (Walkersville, Md.). […]
(§2) Fluorometric Assay for Sialidase Activity: Lungs harvested from mice pretreated with one of three sialidase inhibitors or saline alone were weighed, homogenized, centrifuged, and the supernatants collected. […] The NEU reaction was terminated by addition of 133 mM glycine, pH 10.3, 60 mM NaCl, and 0,083 M […] after which the fluorescence intensity was measured with a Bio-Rad fluorometer (excitation at 355 nm; emission at 460 nm). […]

[9] = test system: HPMECs (human primary pulmonary microvascular endothelial cells); experiment: Fluorometric sialidase activity assay (4-MU-NANA) in HPMECs; format: cell-based; settings: increasing concentrations; 1.0×10^6 cells/reaction
Experimental: as §1, §2

[10] = test system: HLFs (human lung fibroblasts); experiment: Fluorometric sialidase activity assay (4-MU-NANA) in HLFs; format: cell-based; settings: increasing concentrations; 1.0×10^6 cells/reaction
Experimental: as §1, §2

[11] = re-injected after 24 h, vs saline

Row | SMILES | sialidase activity in human lung microvascular endothelia, previously reported [1] | reduction of total NEU activity in lung ([2]; 15 mg/kg i.p., re-injected after 24 h, lungs harvested 18 h later, vs saline) | sialidase activity in human lung fibroblasts, previously reported [3] | sialidase activity in human airway epithelia, previously reported [4] | BALF total cell counts, lymphocytes, and neutrophils [5] | lung collagen mRNA (collagen 1A2, collagen 3A1; qRT-PCR) [5] | lung collagen protein (hydroxyproline-based QuickZyme assay) [5] | total body weight [5] | lung sialidase activity [2] | total lung sialidase activity [2, 11] | total BALF cell sialidase activity [6] | lung collagen deposition [7] | 14-day collagen deposition, mean value ([5]; mice receiving both BLM and C9-BADANA, BLM alone 13.4±2.1 μg/mg) [µg/mg] | IC50 (NEUs 2-4) [mM] | sialidase activity in SAECs [8] | sialidase activity in HPMECs [9] | sialidase activity in HLFs [10]
1 | CC(=O)N[C@H]1[C@H]([C@H](O)[C@H](O)CO)OC(C(=O)O)C[C@@H]1O (stereo partly drawn) [2DN, 2-deoxy-N-acetyneuraminic acid, reference compound] | inhibition | at least 8 fold | inhibition | inhibition | reversed | reduced | reversed | returned to their pretreatment baseline | – | – | – | – | – | – | – | – | –
2 | CCCCC(=O)NC[C@H](O)[C@H](O)[C@@H]1OC(C(=O)O)=C[C@H](O)[C@H]1NC(C)=O [C9-BADANA] | inhibition | – | inhibition | inhibition | reversed | protected against | protected against; also recorded: significantly decreased | returning to their pretreatment baselines; also recorded: counteracted | dramatically reduces | reduced | reduced | dramatically reduces | 8.6 ± 1.7 | > 1 | – | – | –
3 | CCCCCC(=O)N[C@H]1[C@H]([C@@H](O)[C@@H](O)CNC(C)=O)OC(C(=O)O)=C[C@@H]1O [III-32B5, C5-hexanamido-C9-acetamido-DANA] | – | – | – | – | reversed | protected against | protected against; also recorded: significantly decreased | returning to their pretreatment baselines; also recorded: counteracted | – | reduced | reduced | – | – | – | dose-dependently inhibited | dose-dependently inhibited | dose-dependently inhibited
